Measurements published in DBAASP.
In brackets after ≈: the same amount, converted by molar mass.

How the values were obtained:
Assay in all cases: ≥ marks a high value that may be exact or a test limit, other limits are often not marked, values filed in µg/mL are converted to µM
[1] = system: Staphylococcus aureus PCM 1944
[2] = system: Escherichia coli PCM 2057
[3] = system: Salmonella enterica subsp. enterica serovar Typhimurium ATCC 700408
[4] = system: Klebsiella pneumoniae DSM 681
[5] = system: Micrococcus luteus ATCC 10240
[6] = system: Escherichia coli DC2
[7] = system: Klebsiella pneumoniae K6 ATCC 700603
[8] = system: Escherichia coli D31
[9] = system: Escherichia coli BL21AI
[10] = system: Escherichia coli DSM 1103
[11] = system: Vibrio anguillarum NCIMB 829
[12] = system: Escherichia coli JCM 1649
[13] = system: Shewanella putrefaciens IAM 1509
[14] = system: Bacillus subtilis IAM 1026
[15] = system: Photobacterium damselae subsp. piscicida Sp 9587
[16] = system: Staphylococcus aureus IAM 1011
[17] = system: Salmonella typhimurium
[18] = system: Vibrio parahaemolyticus Vp+1
[19] = system: Aeromonas salmonicida NCIMB 1102
[20] = system: Pseudomonas aeruginosa H1027
[21] = system: Stenotrophomonas maltophilia ATCC 13637
[22] = system: Pseudomonas aeruginosa 198
[23] = system: Staphylococcus aureus ATCC 25923
[24] = system: Enterococcus faecalis f43559
[25] = system: Enterococcus faecalis W61950
[26] = system: Enterococcus faecium mic80
[27] = system: Enterobacter cloacae 218R
[28] = system: Enterococcus faecium t62764
[29] = system: Klebsiella pneumoniae ESBL 61962
[30] = system: Staphylococcus aureus C623
[31] = system: Escherichia coli ESBL 63103
[32] = system: Enterococcus faecalis ATCC 29212
[33] = system: Pseudomonas aeruginosa PAO1 H103
[34] = system: Escherichia coli ESBL 64771
[35] = system: Pseudomonas aeruginosa H1030
[36] = system: Pseudomonas aeruginosa 9
[37] = system: Pseudomonas aeruginosa LES400
[38] = system: Klebsiella pneumoniae ESBL 63575
[39] = system: Pseudomonas aeruginosa 213

Question: What does the source list for `C[C@@H]1NC(=O)[C@H](C)NC(=O)[C@H](CCCCN)NC(=O)[C@@H](N)CSSC[C@@H](C(=O)O)NC(=O)[C@H](Cc2ccccc2)NC1=O` [CKAAFC]?
Answer: MIC [1]: ≥ 1560 µM; MIC [2]: ≥ 1560 µM

Question: For `CC[C@H](C)[C@H](NC(=O)[C@H](CCCN=C(N)N)NC(=O)[C@@H]1CCCN1C(=O)[C@H](Cc1cnc[nH]1)NC(=O)[C@@H]1CCCN1C(=O)[C@@H]1CCCN1C(=O)[C@H](CCCN=C(N)N)NC(=O)[C@@H]1CCCN1C(=O)[C@H](CCCN=C(N)N)NC(=O)[C@@H]1CCCN1C(=O)[C@@H](NC(=O)[C@H](Cc1ccc(O)cc1)NC(=O)[C@@H](NC(=O)[C@@H]1CCCN1C(=O)[C@H](CCCN=C(N)N)NC(=O)[C@H](CC(N)=O)NC(=O)[C@H](CC(N)=O)NC(=O)CN)C(C)C)[C@@H](C)CC)C(N)=O` [GNNRPVYIPRPRPPHPRI], which MIC [3] is on record?
Answer: Its MIC is 0.936 µM (≈ 2 µg/mL).

Question: What about the MIC [4] of the same molecule?
Answer: The MIC was 7.31 µM (≈ 15.6 µg/mL).

Question: And the MIC [5]?
Answer: The MIC was 0.459 µM (≈ 0.98 µg/mL).

Question: And the MIC [6]?
Answer: The MIC was 3.66 µM (≈ 7.81 µg/mL).

Question: And the MIC [7]?
Answer: Its MIC is 3.74 µM (≈ 8 µg/mL).

Question: What about the MIC [8] of the same molecule?
Answer: The MIC was 30 µM (≈ 64 µg/mL).

Question: What about the MIC [9] of the same molecule?
Answer: The MIC was 0.229 µM (≈ 0.49 µg/mL).

Question: And the MIC [10]?
Answer: Its MIC is 0.459 µM (≈ 0.98 µg/mL).

Question: `CC[C@H](C)[C@H](NC(=O)[C@@H](NC(=O)[C@@H](N)CO)C(C)C)C(=O)NCC(=O)N[C@H]1CSSC[C@@H](C(=O)N[C@@H](Cc2ccccc2)C(=O)N[C@H](C(=O)N[C@@H](CCCCN)C(N)=O)C(C)C)NC(=O)[C@@H]2CCCN2C(=O)[C@H](CCCN=C(N)N)NC(=O)[C@@H]2CCCN2C(=O)[C@@H]2CCCN2C(=O)[C@H]([C@@H](C)CC)NC(=O)[C@H](CO)NC(=O)[C@H](Cc2ccccc2)NC(=O)[C@H]([C@@H](C)O)NC(=O)[C@H](Cc2c[nH]c3ccccc23)NC1=O` [SVIGCWTFSIPPRPCFVK] was tested. Which MIC [1] did it give?
Answer: Its MIC is at least 491 µM.

Question: What about the MIC [2] of the same molecule?
Answer: Its MIC is at least 491 µM.

Question: Which results are given for `CC[C@H](C)[C@H](NC(=O)[C@H](CC(N)=O)NC(=O)[C@H](CO)NC(=O)[C@H](CC(C)C)NC(=O)[C@H](C)NC(=O)CNC(=O)[C@H](Cc1ccccc1)NC(=O)[C@H](CC(C)C)NC(=O)[C@H](CO)NC(=O)[C@@H]1CCCN1C(=O)[C@@H](NC(=O)[C@H](CC(C)C)NC(=O)[C@H](CCCCN)NC(=O)[C@@H](NC(=O)[C@H](CC(C)C)NC(=O)[C@H](Cc1ccccc1)NC(=O)CNC(=O)[C@H](Cc1ccccc1)NC(=O)[C@@H](N)CC(C)C)[C@@H](C)CC)[C@@H](C)CC)C(=O)NCC(=O)N[C@@H](CCCN=C(N)N)C(=O)N[C@@H](CC(N)=O)C(=O)N[C@@H](CCCN=C(N)N)C(=O)N[C@@H](CC(N)=O)C(=O)N[C@@H](CCC(N)=O)C(=O)O` [LFGFLIKLIPSLFGALSNIGRNRNQ]?
Answer: MIC [11]: 17.9 µM (≈ 50 µg/mL); MIC [12]: 17.9 µM (≈ 50 µg/mL); MIC [13]: 4.48 µM (≈ 12.5 µg/mL); MIC [14]: 8.96 µM (≈ 25 µg/mL); MIC [15]: 4.48 µM (≈ 12.5 µg/mL); MIC [16]: 2.24 µM (≈ 6.25 µg/mL); MIC [17]: 17.9 µM (≈ 50 µg/mL); MIC [18]: 8.96 µM (≈ 25 µg/mL); MIC [19]: 17.9 µM (≈ 50 µg/mL)

Question: With `CC(C)[C@H](NC(=O)[C@H](CCCN=C(N)N)NC(=O)[C@H](CCCCN)NC(=O)[C@@H](NC(=O)[C@H](Cc1ccccc1)NC(=O)[C@H](CCCCN)NC(=O)[C@H](Cc1c[nH]c2ccccc12)NC(=O)[C@@H](NC(=O)[C@H](C)N)C(C)C)C(C)C)C(=O)O` [AVWKFVKRV] as the molecule, how does the MIC [20] read?
Answer: Its MIC is at least 93.6 µM.

Question: And the MIC [21]?
Answer: Its MIC is at least 46.8 µM.

Question: And the MIC [22]?
Answer: The MIC was at least 186 µM.

Question: What about the MIC [23] of the same molecule?
Answer: The MIC was 186 µM (≈ 211 µg/mL).

Question: What about the MIC [24] of the same molecule?
Answer: The MIC was at least 186 µM.

Question: What about the MIC [25] of the same molecule?
Answer: Its MIC is at least 186 µM.

Question: And the MIC [26]?
Answer: Its MIC is at least 93.6 µM.

Question: What about the MIC [27] of the same molecule?
Answer: The MIC was at least 186 µM.

Question: And the MIC [28]?
Answer: The MIC was at least 93.6 µM.

Question: And the MIC [29]?
Answer: The MIC was at least 186 µM.

Question: What about the MIC [30] of the same molecule?
Answer: Its MIC is at least 186 µM.

Question: And the MIC [31]?
Answer: Its MIC is at least 186 µM.

Question: And the MIC [32]?
Answer: Its MIC is over 186 µM.

Question: What about the MIC [33] of the same molecule?
Answer: The MIC was at least 186 µM.

Question: And the MIC [34]?
Answer: Its MIC is at least 93.6 µM.

Question: And the MIC [35]?
Answer: The MIC was at least 186 µM.

Question: What about the MIC [36] of the same molecule?
Answer: Its MIC is at least 186 µM.

Question: What about the MIC [37] of the same molecule?
Answer: Its MIC is at least 186 µM.

Question: What about the MIC [38] of the same molecule?
Answer: The MIC was at least 186 µM.

Question: And the MIC [39]?
Answer: The MIC was at least 186 µM.
